Assay results taken from ChEMBL document CHEMBL1158302, “Makaluvic acids A and B: novel alkaloids from the marine sponge Zyzzya fuliginosus” (1996).
≈ marks a conversion by molar mass, not a printed value. Calls of active or inactive are those of the source. No cut-off for these calls is given here.

Tested on: P388
Assay: Cytotoxicity against mouse P388 cells
Type: functional
Settings: for EC50: read-out: ED50 (the source's name)

SMILES	Activity	EC50
CN1CCc2c[nH]c(C(=O)O)c2C1=O	inactive	–
Cn1cnc2c1c(N)nc(=O)n2C	inactive	–
Cn1cc2c3c1C(=O)C(N)=CC3=NCC2 [MAKALUVAMINE A]	–	0.4 µg/mL (≈ 1.99 µM)
Cn1cc2c3c1C(=O)C(N/C=C/c1ccc(O)cc1)=CC3=NCC2 [MAKALUVAMINE E]	–	0.6 µg/mL (≈ 1.88 µM)
Cn1cc2c3c1C(=O)C(NCCc1ccc(O)cc1)=CC3=NCC2 [MAKALUVAMINE K]	–	0.7 µg/mL (≈ 2.18 µM)
